Measurements as given in US20240208984A1, “BIVALENT LIGANDS TO UNDERSTAND DIMERIZATION OF THE MU OPIOID RECEPTOR AND THE CHEMOKINE RECEPTOR CCR5 IN NEUROLOGICAL DISORDERS” (priority 2021, published 2024).
Like-named read-outs stand apart in the source and are kept apart here. Marks after values point to notes of the source that are not given here.

Legend:
[1] = test system: HIV-1BaL; test: Anti-HIV-1BaL activity (reverse transcriptase activity) in GHOST CCR5 cells; conditions: for EC50: read-out: Inhibition of HIV-1BaL EC50, RT activity, triplicate
Method: This assay was run in GHOST-CCR5 cells using the CCR5-tropic viral strain HIV-1BaL.
(§1) 100 μL of GHOST CCR5 cells at a density of 1×10^4 cells/well in 10% complete DMEM (10% FBS with 1% L-glutamine and 1% Penicillin/Streptomycin) media were plated in a 96-well flat bottom plate and incubated for 24 h at 37° C./5% CO2. Following the incubation, 100 μL of each compound at 6 concentrations were added in triplicate to both efficacy and toxicity plates followed by 100 μL of HIV-1BaL at a pre-determined titer to the plates being evaluated for efficacy and 50 μL of complete DMEM to the plates being evaluated for cytotoxicity. The cultures were incubated for 6 days at 37° C./5% CO2. Following the incubation, 50 μL of cell culture supernatant was removed from the wells of the efficacy plates for subsequent evaluation of virus content by reverse transcriptase activity assay. The toxicity plates being evaluated for cytotoxicity were stained with XTT.
RT activity (EC50 values) was measured using standard radioactivity incorporation polymerization assay. 1 μL of titrated thymidine triphosphate (TTP) at 1 Ci/mL was used per enzyme reaction. Poly rA and oligo dT were prepared at concentrations of 0.5 mg/mL and 1.7 Units/mL, respectively, from a stock solution which was kept at −20° C. The RT reaction buffer was prepared fresh and consists of 125 μL of 1M EGTA, 125 μL of dH2O, 125 μL of 20% Triton X-100, 50 μL of 1M Tris (pH 7.4), 50 μL of 1M DTT, and 40 μL of 1 M MgCl2. For each reaction, 1 μL of TTP, 4 μL of dH2O, 2.5 μL of rAdT and 2.5 μL of reaction buffer were mixed. 10 μL of this reaction mixture was placed in a round bottom microtiter plate with 15 μL of virus containing supernatant. The plate was incubated at 37° C. in a humidified incubator for 60-90 min. […] The dried filtermat was placed in a plastic sleeve and 4 mL of Opti-Fluor O (Perkin Elmer, catalog #1205-440) scintillation fluid was added to each sleeve. […] TC50 values for the tested compounds were derived by measuring the reduction of the tetrazolium dye XTT (2,3-bis(2-methoxy-4-nitro-5-sulfophenyl)-5-[(phenylamino)carbonyl]-2H-tetrazolium hydroxide). XTT in metabolically active cells is metabolized by the mitochondrial enzyme NADPH oxidase to a soluble formazan product. XTT solution was prepared as a stock of 1 mg/mL in RPMI-1640 without additives. Phenazine methosulfate (PMS) solution was prepared at 0.15 mg/mL in DPBS and stored in the dark at −20° C. XTT/PMS stock was prepared immediately before use by adding 40 μL of PMS per mL of XTT solution. […] The plates were sealed and inverted several times to mix the soluble formazan product and the plate was read at 450 nm (650 nm reference wavelength) with a Molecular Devices SPECTRAMAX® Plus 384 96 well format spectrophotometer.

[2] = test system: GHOST CCR5 cells; conditions: GHOST CCR5 cells; XTT; triplicate
Method: These compounds were concurrently assessed for cytotoxicity in GHOST-CCR5-expressing cells using the XTT assay. […] The therapeutic index (TI, TC50/EC50) values were calculated if applicable.
as §1
TC50 values for the tested compounds were derived by measuring the reduction of the tetrazolium dye XTT (2,3-bis(2-methoxy-4-nitro-5-sulfophenyl)-5-[(phenylamino)carbonyl]-2H-tetrazolium hydroxide). XTT in metabolically active cells is metabolized by the mitochondrial enzyme NADPH oxidase to a soluble formazan product. XTT solution was prepared as a stock of 1 mg/mL in RPMI-1640 without additives. Phenazine methosulfate (PMS) solution was prepared at 0.15 mg/mL in DPBS and stored in the dark at −20° C. XTT/PMS stock was prepared immediately before use by adding 40 μL of PMS per mL of XTT solution. 50 μL of XTT/PMS was added to each well of the plate and the plate was incubated for 4 h at 37° C. The plates were sealed and inverted several times to mix the soluble formazan product and the plate was read at 450 nm (650 nm reference wavelength) with a Molecular Devices SPECTRAMAX® Plus 384 96 well format spectrophotometer.

[3] = test system: HIV-1BaL Env-pseudotyped Luc-expressing virus; test: HIV-1 infection assay in PHA-stimulated PBMC cells; assay type: cell-based; conditions: PHA-stimulated PBMCs; 10 nM
Method: Peripheral blood mononuclear cells (PBMCs) include large numbers of CCR5-expressing leukocytes and are susceptible to infection by R5-tropic HIV-1 strains.
In a 24-well plate, PHA-stimulated PBMC cells from healthy donors were infected by incubation with the HIV-1BaL.01 env-pseudotyped Luc virus. A concentration of HIV-1 p24 50 pg/106 cells was used, and uninfected cells served as a negative control. […] After approximately 18-20 h, the supernatant was removed and stored at −80° C., cells were rinsed twice with PBS and lysed. The lysate was subsequently tested for the relative Tat protein expression by using a luciferase assay system (Promega). Luciferase activity was measured using a PHERASTAR® FS plate reader (BMG Labtech).

[4] = molecular target: T1, CCR5 (Homo sapiens (Human), UniProt P51681); conditions: data reported before, shown for comparison; read-out: Inhibition of CCL5-stimulated Intracellular Ca2+ Mobilization IC50; cited from earlier work
T1 sequence (P51681 whole entry): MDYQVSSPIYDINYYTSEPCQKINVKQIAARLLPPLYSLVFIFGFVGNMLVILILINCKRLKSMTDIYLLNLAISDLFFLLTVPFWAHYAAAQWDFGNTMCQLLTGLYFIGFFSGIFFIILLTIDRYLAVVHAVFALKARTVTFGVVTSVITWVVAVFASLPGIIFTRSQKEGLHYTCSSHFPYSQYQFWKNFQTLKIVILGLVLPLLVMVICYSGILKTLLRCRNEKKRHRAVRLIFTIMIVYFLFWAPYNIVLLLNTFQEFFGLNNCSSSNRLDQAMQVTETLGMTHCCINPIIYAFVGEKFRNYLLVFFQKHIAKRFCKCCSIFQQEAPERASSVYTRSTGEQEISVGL

[5] = molecular target: T2, Rhesus macaque chemokine CCR5 receptors (Macaca mulatta (Rhesus macaque), UniProt P61813); conditions: data reported before; similar assay with minor differences; read-out: CCR5 Radioligand Binding Affinity Ki; cited from earlier work
[6] = molecular target: T3, mouse MOR (Mus musculus (Mouse), UniProt P42866); conditions: [35S]GTPγS binding; data reported before, shown for comparison; cited from earlier work
T3 sequence (P42866 whole entry, looked up): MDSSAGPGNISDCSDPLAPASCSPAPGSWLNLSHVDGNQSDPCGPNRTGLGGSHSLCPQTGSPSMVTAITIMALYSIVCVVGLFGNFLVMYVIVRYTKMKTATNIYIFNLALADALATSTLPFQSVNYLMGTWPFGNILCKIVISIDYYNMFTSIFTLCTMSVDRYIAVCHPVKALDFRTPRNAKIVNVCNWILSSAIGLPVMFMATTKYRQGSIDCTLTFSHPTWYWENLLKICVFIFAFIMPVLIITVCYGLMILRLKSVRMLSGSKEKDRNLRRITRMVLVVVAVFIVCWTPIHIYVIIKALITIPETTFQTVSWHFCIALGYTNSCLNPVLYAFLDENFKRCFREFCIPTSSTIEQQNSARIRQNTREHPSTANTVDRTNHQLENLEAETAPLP

[7] = molecular target: T4, mouse mu opioid receptor (Mus musculus (Mouse), UniProt P42866); conditions: read-out: Inhibition of DAMGO Induced Ca2+ Mobilization IC50; data reported before, shown for comparison; cited from earlier work
T4 sequence (P42866 whole entry, looked up): as above

[8] = molecular target: T3, mouse MOR; test: In vitro MOR radioligand binding assay; conditions: [3H]naloxone radioligand; mMOR-CHO; mean ± SEM; read-out: MOR Radioligand Binding Affinity Ki
Method: In vitro MOR radioligand binding studies. All bivalent ligands were first tested for their binding affinity to the MOR. The competitive radioligand binding assay was conducted using monoclonal mouse MOR expressed in CHO cell lines (mMOR-CHO).
In vitro MOR radioligand binding assay The competition binding assay was conducted using monoclonal mouse MOR expressed in Chinese hamster ovary (CHO) cell lines. In this assay, 30 μg of membrane protein was incubated with the radioligand [^3H] naloxone in the presence of different concentrations of tested compounds in TME buffer (50 mM Tris, 3 mM MgCl2, and 0.2 mM EGTA, pH 7.4) for 1.5 h at 30° C. The bound radioligand was separated by filtration using a Brandel harvester. […] The IC50 values were determined and converted to Ki values using the Cheng-Prusoff equation: Ki=IC50/[1+([L*]/KD)], where [L*] is the concentration of the radioligand and KD is the KD of the radioligand was determined.73

[9] = molecular target: T4, mouse mu opioid receptor; test: Calcium mobilization assay in mMOR-CHO cells; assay type: cell-based
Method: Calcium mobilization assay results in mMOR-CHO cells. The pharmacological profiles of the three newly prepared MOR bivalent ligands were further characterized for their effects on MOR-dependent intracellular Ca^2+ signaling in an mMOR-CHO cell line that was transfected with chimeric Gqi5 protein as previously described.
A CHO cell line stably expressing the mouse mu opioid receptor (mMOR-CHO) was used for this assay. The cells were transfected with Gαqi5 for 4 h and then plated (10,000 cells/well) to black 96-well plates with clear bottoms (Greiner Bio-One). After 24 h of incubation, the culture medium was removed, and the cells were washed with assay buffer (50 mL of HBSS, 1 mL of HEPES, 250 μL of probenecid, 50 μL of 1 mM CaCl2, and 50 μL of 1 mM MgCl2). The tested compounds were dissolved in DMSO as a stock solution for the assay (1 M). For agonist assays, cells were then incubated with 50 μL/well loading buffer (6 mL of assay buffer, 24 μL of Fluo4-AM solution (Invitrogen), and 12 μL of probenecid solution) for 60 min. Following incubation, different concentrations of the tested compounds were added by a FlexStation3 microplate reader (Molecular Devices) and read at ex494/em516. Each concentration was run in triplicate. For antagonism studies, the cells were incubated with the same loading buffer as the agonist assay for 60 min. Then, different concentrations of the tested compounds (20 μL/well) were manually added to each well followed by another 15 min of incubation. […] Each concentration was run in triplicate. The corresponding IC50 value of each compound was calculated by non-linear regression using GraphPad Prism 8.0.1 (GraphPad Software, San Diego, CA).

[10] = molecular target: T2, Rhesus macaque chemokine CCR5 receptors; test: In vitro CCR5 radioligand binding assay; conditions: [125I]MIP-1α radioligand; Chem-1 cells; Cheng-Prusoff; mean ± SEM; read-out: CCR5 Radioligand Binding Affinity Ki
Method: In vitro CCR5 radioligand binding studies. To verify the binding affinity of the bivalent ligands to the CCR5, the competitive radioligand binding assay was conducted in recombinant rhesus macaque CCR5-expressing Chem-1 cells, and macrophage inflammatory protein 1 beta (MIP-1β) was used as a control.
The CCR5 competitive radioligand binding assay was conducted following previously reported studies.74, 75 Rhesus macaque chemokine CCR5 receptors expressed in Chem-1 cells are assayed in modified HEPES buffer (50 mM HEPES, 1 mM CaCl2, 5 mM MgCl2, 0.2% BSA, pH 7.4). 3 μg of membrane protein was incubated with 0.10 nM [^125I]MIP-1α in the presence of six concentrations of tested compounds (10 μM, 1 μM, 0.1 μM, 10 nM, 1 nM, and 0.1 nM) for 90 min at 25° C. Non-specific binding is estimated in the presence of 0.1 μM MIP-1β.

[11] = molecular target: T1, CCR5; test: Calcium mobilization assay in HOS-CCR5 cells; assay type: cell-based
Method: We then conducted the calcium mobilization assay to further test both the agonist and antagonist properties of the newly synthesized compounds in the HOS-CCR5 (stably transfected for the expression of CCR5) cells using our reported protocol, as calcium mobilization is associated with the activation of CCR5. Prior to the assay, the HOS-CCR5 cells were transiently transfected with a Gqi5 to boost calcium signaling levels.
In the antagonism assay, these compounds were assessed for their ability to inhibit CCL5-stimulated Ca^2+ mobilization.
HOS-CCR5 cells were transfected with Gqi5 pcDNA16 using Lipofectamine 2000 (Invitrogen) according to the manufacturer's recommended procedure and maintained in RPMI 1640 supplemented with 10% fetal bovine serum, 100 μg/mL penicillin, 100 μg/mL streptomycin, and 1 mg/mL G418 at 37° C. and 5% C02. 48 h after transfection, a total of 2,500,000 cells were spun down and brought back up in 8 mL of 50:1 HBSS: HEPES assay buffer. Cells were then plated at 25,000 cells per well into a clear bottom, black 96-well plate (Greiner Bio-one) and 50 μL of Fluo4 loading buffer [40 μL of 2 μM Fluo4-AM (Invitrogen), 100 μL of 2.5 mM probenecid, in 5 mL of assay buffer] was added to bring the volume up to 130 μL. After incubating for 45 min, 50 μL of varying concentrations of tested compounds were added and the plate was incubated for an additional 15 min. Plates were then read on a FlexStation3 microplate reader (Molecular Devices) at 494/516 ex/em for a total of 120 s. After 16 s of reading, 20 μL of 200 nM CCL5 (Biosource) in assay buffer, or assay buffer alone, was added to the wells to bring the total volume up to 200 μL. The changes in calcium mobilization were monitored and peak height values were obtained using SoftMaxPro software (Molecular Devices). Non-linear regression curves and IC50 values were generated using GraphPad Prism 8.0.1 (GraphPad Software, San Diego, CA). All experiments were repeated at least three times.

[12] = molecular target: T3, mouse MOR; test: [35S]GTPγS functional assay in mMOR-CHO; assay type: biochemical; conditions: [35S]GTPγS binding, mean ± SEM
Method: After incubation, the bound radioactive ligand was separated from the free radioligand by filtration through a GF/B glass fiber filter paper and rinsed three times with ice-cold wash buffer (50 mM Tris-HCl, pH 7.2) using the Brandel harvester.

Question: Which results are given for `Cc1nnc(C(C)C)n1C1C[C@H]2CC[C@@H](C1)N2CC[C@H](NC(=O)C1CCC(F)(F)CC1)c1ccccc1` (stereo in doubt) [Maraviroc]?
Answer: TI (TC50/EC50) [1]: >28; EC50 [1]: 18 ± 2 nM; Cytotoxicity TC50 [2]: >500 nM

Question: With `C[C@@H](NC(=O)[C@@H](N)Cc1ccc(O)cc1)C(=O)NCC(=O)N(C)[C@@H](Cc1ccccc1)C(=O)NCCO` [DAMGO, [D-Ala2-MePhe4-Gly(ol)5]enkephalin, reference compound] as the molecule, how does the “effect of opioid exposure on HIV expression” value [3] read?
Answer: remarkable increases in HIV expression

Question: What does the source list for `Cc1nnc(C(C)C)n1C1CC2CCC(C1)N2CC[C@H](NC(=O)C1CCC(F)(F)CC1)c1ccc(NC(=O)COCC(=O)NCCCCCCCNC(=O)COCC(=O)N[C@@H]2CC[C@@]3(O)[C@H]4Cc5ccc(O)c6c5[C@@]3(CCN4CC3CC3)[C@H]2O6)cc1` (stereo partly drawn) [VZMC001]?
Answer: EC50 [1]: > 100000 nM; Cytotoxicity TC50 [2]: >100000 nM; IC50 [4]: 126 nM; Ki [5]: 239 ± 56 nM; % Emax of DAMGO [6]: 11.7 ± 1.2^b %; IC50 [7]: 40 nM

Question: For `CNC(=O)COCC(=O)NCCCNC(=O)COCC(=O)N[C@@H]1CC[C@@]2(O)[C@H]3Cc4ccc(O)c5c4[C@@]2(CCN3CC2CC2)[C@H]1O5` [VZMC002], which “Cytotoxicity TC50” value [2] is on record?
Answer: >100000 nM

Question: Which Ki [8] does the source give for `CC(C)c1nnc(CCNC(=O)COCC(=O)NCCCCCCCCCNC(=O)COCC(=O)NC2CC[C@@]3(O)[C@H]4Cc5ccc(O)c6c5[C@@]3(CCN4CC3CC3)[C@H]2O6)n1C1CC2CCC(C1)N2CC[C@H](NC(=O)C1CCC(F)(F)CC1)c1ccccc1` (stereo partly drawn) [VZMC017] here?
Answer: 11.2 nM

Question: What about the IC50 [9] of the same molecule?
Answer: 74.4 nM

Question: What about the Ki [10] of the same molecule?
Answer: 5.7 ± 0.23 nM

Question: What about the IC50 [11] of the same molecule?
Answer: 965 ± 30.5 nM

Question: And the “% Emax of DAMGO” value [12]?
Answer: 4.27 ± 0.66^a %

Question: Which EC50 ([11]; agonist mode, HOS-CCR5 transfected with Gqi5, read-out: CCR5 Ca2+ mobilization agonism EC50) does the source give for “CCL5: C—C motif chemokine ligand 5, control CCR5 agonist” here?
Answer: 155 ± 6.58 nM

B1: MIP-1β: macrophage inflammatory protein 1 beta, used as a control (protein, UniProt P13236 24-92, looked up)
C-C motif chemokine 4: APMGSDPPTACCFSYTARKLPRNFVVDYYETSSLCSQPAVVFQTKRSKQVCADPSESWVQEYVYDLELN
Question: For B1, which Ki [10] is on record?
Answer: 0.056 ± 0.006 nM
